Measured values reported in patent US5939419A, “2-benzyl-polycyclic guanine derivatives and process for preparing them” (Schering-Plough Corporation, priority 1995, dated 1999).

The compounds below were run on spontaneously hypertensive rats (SHR) (assay: Antihypertensive activity in conscious spontaneously hypertensive rats (SHR), oral). Settings: not given.
Format: in vivo, rat
Excerpt: The present compounds are useful in inhibiting the phosphodiesterase enzymes. These phosphodiesterase enzymes are known to hydrolyze cGMP in smooth muscle. High levels of cGMP are associated with the relaxation of vascular smooth muscle, with a consequent subsequent reduction in blood pressure. Thus, it is believed that by inhibiting these phosphodiesterase enzymes, cGMP levels in muscle will be either maintained or increased, with a subsequent reduction in blood pressure. In vivo antihypertensive activity is determined orally in spontaneously hypertensive rats (SHR).
Antihypertensive activity in rats
The ability of the compounds of the present invention to lower blood pressure can be assessed in vivo in conscious spontaneously hypertensive rats (SHR). SHR males are purchased from Taconic Farms, Germantown, N.Y. and are approximately 16-18 weeks old when anesthetized with ether. The caudal (ventral tail) artery is cannulated with polyethylene tubing (PE50) and blood pressure and heart rate are recorded as described by Baum, T. et. al, J. Cardiovasc. Pharmacol. Vol 5, pp. 655-667, (1983). Rats are placed into plastic cylindrical cages where they rapidly recover consciousness. Blood pressure and heart rate are allowed to stabilize for approximately 90 minutes prior to compound administration. […] Activity is expressed as the fall in mean blood pressure (MBP) in millimeters of mercury (mm Hg). […]

With CN1C(=O)c2[nH]c(Cc3ccccc3)nc2N2C1=N[C@@H]1CCC[C@@H]12 (relative stereo) [Compound A, reference compound] as the compound, how does the “SHR: fall in MBP at 25 mpk” value read?
The value was 6 mmHg.

Which “SHR: fall in MBP at 25 mpk” value does the source give for CN1C(=O)c2[nH]cnc2N2C1=N[C@@H]1CCC[C@@H]12 (relative stereo) [Compound B, cis-5,6a,7,8,9,9a-hexahydro-5-methylcyclopenta-[4,5]imidazo[2,1-b]-purin-4(3H)-one, reference compound] here?
The value was 32 mmHg.

The compounds below were run against T1, calcium-calmodulin dependent phosphodiesterase (CaM-PDE) (Bos taurus, UniProt P14100) (assay: Phosphodiesterase inhibition in vitro, calcium-calmodulin dependent phosphodiesterase (CaM-PDE), 3H-cGMP substrate). Settings: CaM-PDE from bovine aorta; 1 μM 3H-cGMP; pH 7.5; 25 minutes at room temperature.
T1 construct: from tissue; host or cells: bovine aorta
Format: biochemical

Which IC50 does the source give for CN1C(=O)c2[nH]c(Cc3ccccc3)nc2N2C1=N[C@@H]1CCC[C@@H]12 (relative stereo) [Compound A, reference compound] here?
The IC50 was 200 nM.

Which IC50 does the source give for CN1C(=O)c2[nH]cnc2N2C1=N[C@@H]1CCC[C@@H]12 (relative stereo) [Compound B, cis-5,6a,7,8,9,9a-hexahydro-5-methylcyclopenta-[4,5]imidazo[2,1-b]-purin-4(3H)-one, reference compound] here?
The IC50 was 33000 nM.

Which IC50 does the source give for CN1C(=O)c2[nH]c(Cc3ccc(F)cc3)nc2N2C1=N[C@@H]1CCC[C@@H]12 [Example 1A] here?
The IC50 was less than 100 nM.

How did the IC50 turn out when COc1ccc(Cc2nc3c([nH]2)C(=O)N(C)C2=N[C@@H]4CCC[C@@H]4N23)cc1 [Example 1B] was run?
Its IC50 is 200 nM.

For CN1C(=O)c2[nH]c(Cc3ccc(C(F)(F)F)cc3)nc2N2C1=N[C@@H]1CCC[C@@H]12 [Example 1C], which IC50 is on record?
The IC50 was 600 nM.

CN1C(=O)c2[nH]c(Cc3ccccc3)nc2N2C1=N[C@@H]1CCC[C@@H]12 [Example 1] was tested. Which IC50 did it give?
Its IC50 is 100 nM.

How did the IC50 turn out when COc1cc(Cc2nc3c([nH]2)C(=O)N(C)C2=N[C@@H]4CCC[C@@H]4N23)cc(OC)c1OC [Example 2A] was run?
The IC50 was 700 nM.

Which IC50 does the source give for COc1ccc(Cc2nc3c([nH]2)C(=O)N(C)C2=N[C@@H]4CCC[C@@H]4N23)cc1OC [Example 2B] here?
Its IC50 is 400 nM.

CN1C(=O)c2[nH]c(Cc3ccc(N(C)C)cc3)nc2N2C1=N[C@@H]1CCC[C@@H]12 [Example 2] was tested. Which IC50 did it give?
Its IC50 is less than 100 nM.

Cc1ccc(Cc2nc3c([nH]2)C(=O)N(C)C2=N[C@@H]4CCC[C@@H]4N23)cc1 [Example 3A] was tested. Which IC50 did it give?
Its IC50 is 100 nM.

For CN1C(=O)c2[nH]c(Cc3ccc(OC(F)(F)F)cc3)nc2N2C1=N[C@@H]1CCC[C@@H]12 [Example 3B], which IC50 is on record?
Its IC50 is 600 nM.

For CN1C(=O)c2[nH]c(Cc3ccc(N4CCOCC4)cc3)nc2N2C1=N[C@@H]1CCC[C@@H]12 [Example 3C], which IC50 is on record?
Its IC50 is 200 nM.

How did the IC50 turn out when COc1cccc(Cc2nc3c([nH]2)C(=O)N(C)C2=N[C@@H]4CCC[C@@H]4N23)c1 [Example 3E] was run?
Its IC50 is 900 nM.

For CN1C(=O)c2[nH]c(Cc3cccc(C(F)(F)F)c3)nc2N2C1=N[C@@H]1CCC[C@@H]12 [Example 3F], which IC50 is on record?
Its IC50 is 800 nM.

Which IC50 does the source give for CN1C(=O)c2[nH]c(Cc3ccc4c(c3)OCO4)nc2N2C1=N[C@@H]1CCC[C@@H]12 [Example 3G] here?
The IC50 was 300 nM.

With CN1C(=O)c2[nH]c(Cc3ccc(-c4ccccc4)cc3)nc2N2C1=N[C@@H]1CCC[C@@H]12 [Example 3H] as the compound, how does the IC50 read?
The IC50 was less than 100 nM.

For CN1C(=O)c2[nH]c(Cc3ccc(O)cc3)nc2N2C1=N[C@@H]1CCC[C@@H]12 [Example 3], which IC50 is on record?
Its IC50 is less than 100 nM.

How did the IC50 turn out when CN1C(=O)c2[nH]c(Cc3ccc4ccccc4c3)nc2N2C1=N[C@@H]1CCC[C@@H]12 [Example 6] was run?
Its IC50 is 480 nM.

CN1C(=O)c2[nH]c(Cc3ccc(Cl)cc3)nc2N2C1=N[C@@H]1CCC[C@@H]12 [Example 7] was tested. Which IC50 did it give?
The IC50 was 650 nM.

How did the IC50 turn out when CN1C(=O)c2[nH]c(Cc3ccccc3)nc2N2CC3(CCCC3)N=C12 [Example 8] was run?
Its IC50 is 100 nM.

For CN1C(=O)c2[nH]c(Cc3ccccc3)nc2N2CC(C)(C)N=C12 [Example 9], which IC50 is on record?
Its IC50 is 300 nM.

With CC(C)[C@@H]1CN2C(=N1)N(C)C(=O)c1[nH]c(Cc3ccccc3)nc12 [Example 10] as the compound, how does the IC50 read?
Its IC50 is 100 nM.

With CN1C(=O)c2[nH]c(Cc3ccc4c(c3)OCO4)nc2N2C1=NC13CCCC1CCC23 (centres unmarked) [Example 11] as the compound, how does the IC50 read?
The IC50 was 200 nM.

CN1C(=O)c2[nH]c(Cc3ccc(C(F)(F)F)cc3)nc2N2C1=N[C@@H]1COC[C@@H]12 [Example 12] was tested. Which IC50 did it give?
The IC50 was 3000 nM.
